The text below walks through data of US20050130197A1, “Homogeneous fluorescence polarization assay for high throughput screening” (priority 2003, published 2005).

Where two headings read alike, the source gives them in different places. Where a SMILES comes first, the peptide text is derived from it. Where no end group is shown, it is not given here. [ ]: non-standard residue; d: D form. NMeF = CN[C@@H](Cc1ccccc1)C(=O)O

Test [1] addresses T1, human NPFF2 receptor (Homo sapiens, UniProt Q9Y5X5).
T1 construct: purchased Euroscreen s.a; (Brussels, Belgium)
Nature of the test: Fluorescence polarization (FP) competition binding assay, TAMRA-NPFF tracer, 0.1% Pluronic F-127. As to conditions: for Ki for inhibiting TAMRA-NPFF binding (in words): FP displacement curves; for Ki: FP competition binding, TAMRA-NPFF tracer, human NPFF2 receptor membrane preparation, means ± S.E. of three separate experiments; for affinity to the TAMRA-NPFF binding site / binding to NPFF2 receptor: 10 μM, FP assay. As to the method: Human NPFF2 receptor membrane homogenates were diluted in a binding buffer (50 mM HEPES buffer, pH 7.4 and various concentrations of detergents) to the membrane concentration required. In general, the binding assay was performed in a final volume of 40 μl: 20 μl of displacing ligand, 10 μl of fluorescent tracer, and 10 μl of diluted receptor membrane preparation (3.6-4.2 ug protein/well depending on the assay), which were added sequentially. The reaction was incubated at room temperature for 0.5-24 h before FP was measured depending on each experiment.
FP binding data were analyzed and fitted using GraphPad Prism® software (GraphPad Software, Inc., San Diego, Calif.). Competitive binding data was fit to a one-site competitive binding equation using nonlinear regression curve fitting. IC50 values were determined by nonlinear regression analysis of the inhibition curves. Data points in the displacement curves and in the graphs of DMSO, nonionic detergents, Chicago Sky Blue 6B and tartrazine consist of an average of 4-6 repetitions. All error bars represent ±1 standard deviation unit of the spread of the data except for displacement curves, where the error bars represent ±SEM. mP is defined by the following equation: mP=1000×(I∥−I⊥)/(I∥+I⊥) where mP=milli-polarization, I∥=parallel component of the emitted light, and I⊥=perpendicular component of the emitted light. Assay precision was assessed by calculating the Z′ value: Z′=1−[(3*σbound)+(3*σdisplaced)/|(mPbound−mPdisplaced)|] where σ is the standard deviation in the signal, mP: the subscript “bound” corresponds to the signal obtained in the absence of a displacing substance; and the subscript “displaced” corresponds to the signal of a completely displaced ligand (Zhang, J-H. et al., J. Biomol. Screen., (1999) 4, 67-73; Banks, P. et al., J. Biomol. Screen., (2002) 7, 111-117). The denominator of the equation calculates the specific binding expressed in the absolute value of mP difference, and the numerator calculates the precision in both bound and displaced signals. Background correction was done after each analysis by subtracting blank parallel and perpendicular intensities from the respective intensities. According to Z′ value model, the Z′ values of above 0.5 indicate excellent assays.
For orientation: Fluorescence polarisation rises when a labelled molecule tumbles more slowly, as on binding a larger partner.

Test [2] addresses T2, human NPFF2 receptor membranes (Homo sapiens, UniProt Q9Y5X5).
T2 construct: purchased Euroscreen s.a; (Brussels, Belgium)
Nature of the test: In vitro functional FP assay with GDP and GTPγS (GTP binding assay). Format: biochemical. As to conditions: one agonist fixed at 2-3×IC50, other ligand varied; 3 μM GDP and 5 μM GTPγS.
Description: The binding assay was performed in a final volume of 40 μl as follows: 10 μl of different concentrations of displacing ligand, 10 μl of tracer, and 10 μl of diluted receptor membrane preparation (3.6-4.2 ug protein/well), which were added sequentially. After 15 min, 10 μl of the binding buffer with 3-10 μM GDP and 5-50 μM GTPγS was added. The reaction was incubated at room temperature for 15-120 min.
The concentrations of the other agonist increased from 0.0019 nM to 9.0 μM per well.
Next a combination of an agonist with a fixed concentration and an antagonist with varying concentrations was tested under the same conditions.

The target in test [3] is T1, human NPFF2 receptor. The conditions noted are these: data from J. Biol. Chem. 275: 39324-39331 (2000); read-out: [125I]Ligand Filtration Human Ki (b); cited from earlier work.
The target of test [4] is T1, human NPFF2 receptor. As to conditions: data from Eur. J. Pharmacol. 451: 245-256 (2002); read-out: [125I]Ligand Filtration Human Ki (c); cited from earlier work.

T1 sequence (Q9Y5X5 whole entry): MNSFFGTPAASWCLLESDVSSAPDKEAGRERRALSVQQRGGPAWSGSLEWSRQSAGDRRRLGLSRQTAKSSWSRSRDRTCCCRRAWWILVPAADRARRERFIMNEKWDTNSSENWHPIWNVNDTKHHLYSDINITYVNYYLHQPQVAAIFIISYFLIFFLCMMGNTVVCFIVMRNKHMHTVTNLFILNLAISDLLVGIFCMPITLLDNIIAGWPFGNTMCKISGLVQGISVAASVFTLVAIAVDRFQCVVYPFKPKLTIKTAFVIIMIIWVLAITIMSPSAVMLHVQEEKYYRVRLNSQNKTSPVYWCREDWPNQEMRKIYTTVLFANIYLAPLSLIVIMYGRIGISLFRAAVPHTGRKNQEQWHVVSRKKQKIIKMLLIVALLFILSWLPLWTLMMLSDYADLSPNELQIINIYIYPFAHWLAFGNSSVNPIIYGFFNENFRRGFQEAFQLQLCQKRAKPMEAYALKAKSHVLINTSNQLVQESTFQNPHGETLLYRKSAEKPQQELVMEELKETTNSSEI
T2 sequence (Q9Y5X5 whole entry): as above

As to `CC(C)C[C@H](NC(=O)[C@H](N)Cc1ccc(O)cc1)C(=O)N(C)[C@@H](Cc1ccccc1)C(=O)N[C@@H](CCC(N)=O)C(=O)N1CCC[C@H]1C(=O)N[C@@H](CCC(N)=O)C(=O)N[C@@H](CCCNC(=N)N)C(=O)N[C@@H](Cc1ccccc1)C(N)=O` [[D-Tyr^1(NMe)Phe^3]NPFF, [D-Tyr^1, (N-Me)Phe^3]NPFF] (H-[dY]L[NMeF]QPQRF-NH2), the “Ki for inhibiting TAMRA-NPFF binding (in words)” value at human NPFF2 receptor [1] was “nanomolar range”.

In the case of `NC(N)=NCCC[C@@H](NC(=O)C(c1ccccc1)c1ccccc1)C(=O)NCc1ccc(O)cc1` [BIBP3226], the “affinity state in in vitro functional assays” value in test [2] was “monophasic affinity state”. Besides, the Ki at human NPFF2 receptor [3] was 1260 ± 111 nM; at human NPFF2 receptor [1], 96 ± 13 nM; at human NPFF2 receptor [4] it was 84 ± 12 nM.

Consider `COc1cc(CNC(=O)CCCC/C=C/C(C)C)ccc1O` [capsaicin], for which the “affinity to the TAMRA-NPFF binding site / binding to NPFF2 receptor” value on human NPFF2 receptor [1] was “little or no affinity”.

`CC(C)C[C@H](NC(=O)[C@H](N)Cc1ccc(O)cc1)C(=O)N(C)[C@@H](Cc1ccccc1)C(=O)N[C@@H](CCC(N)=O)C(=O)N1CCC[C@H]1C(=O)N[C@@H](CCC(N)=O)C(=O)N[C@@H](CCCN=C(N)N)C(=O)N[C@@H](Cc1ccccc1)C(N)=O` [[D-Tyr^1(NMe)Phe^3]NPFF, [D-Tyr^1, (N-Me)Phe^3]NPFF] (H-[dY]L[NMeF]QPQRF-NH2): the figures for the Ki at human NPFF2 receptor [1] and on human NPFF2 receptor [4] were 0.46 ± 0.05 nM and 0.18 ± 0.04 nM, respectively.

As for `CC(COc1ccccc1)N(CCCl)Cc1ccccc1` (stereo not drawn) [phenoxybenzamine], the “affinity to the TAMRA-NPFF binding site / binding to NPFF2 receptor” value at human NPFF2 receptor [1] is “little or no affinity”.

Take “APSEPHHPGDQATQDQLAQYYSDLYQYITFVTRPRF-NH2 [Frog PP]”: the Ki at human NPFF2 receptor [3] is 40 ± 11 nM. Also, the “assay window (FIG. 8)” value at human NPFF2 receptor [1] (0.1% trifluoroacetic acid added to assay buffer) is listed as 100 mP. At human NPFF2 receptor [1], the “Ki for inhibiting TAMRA-NPFF binding (in words)” value is given as “nanomolar range”.
